In series [1] the target is T1, Ef Pta / EfPta (phosphotransacetylase) (Enterococcus faecalis, UniProt A0ACD6TAM5).
T1 construct: Ni-NTA and Superdex G200; C182 in CoA pocket, R319, S318, D325 in active site
Description: acetyl-CoA yield by LC-MS after […] s. Format: biochemical. As to conditions: 150 uM CoASSH as in situ mixture with equimolar CoASH, excess Na2S and CoA disulfide; 5 mM acetylphosphate, pH 8.0, room temperature, anaerobic.

Series [2] addresses T1, Ef Pta / EfPta (phosphotransacetylase). Description: thioester formation at […] nm. Format: biochemical. Particulars: 5 mM acetylphosphate; 25 mM Tris-HCl, 40 mM KCl, pH 8.0, room temperature, anaerobic; 10 uM to 5 mM CoA.
The target in series [3] is Enterococcus faecalis coenzyme A persulfide (CoASSH) reductase (Enterococcus faecalis strain OG1RF). The experiment in a line: crystal structure; EfCoAPR as isolated from E. coli, with FAD and CoA (PAP moiety seen); crystals in 20% PEG 3350, 0.1 M Bis-Tris propane pH 6.50, 0.2 M sodium iodide; two molecules in the asymmetric unit; 2.05 Å.
Substrate in series [4]: CC(=O)SCCNC(=O)CCNC(=O)[C@H](O)C(C)(C)COP(=O)(O)OP(=O)(O)OC[C@H]1O[C@@H](n2cnc3c(N)ncnc32)[C@H](O)[C@@H]1OP(=O)(O)O
Description: purified protein. The series is classed as biochemical, Enterococcus faecalis. As to conditions: 5 mM KH2PO4, 25 mM Tris-HCl, 40 mM KCl, pH 8.0, room temperature, anaerobic, 10 uM to 5 mM acetyl-CoA.

From paper PMC9405070, “Metabolic and Structural Insights into Hydrogen Sulfide Mis-Regulation in Enterococcus faecalis” (Antioxidants, 2022) come the findings set out here.

In the case of `CC(C)(COP(=O)(O)OP(=O)(O)OC[C@H]1O[C@@H](n2cnc3c(N)ncnc32)[C@H](O)[C@@H]1OP(=O)(O)O)[C@@H](O)C(=O)NCCC(=O)NCCSS` [CoASSH], the “inhibition of acetyl-CoA formation” value in series [1] is on record as “This inhibition of activity was due to CoASSH specifically”.

Take CoA: the Km in series [2] is 69 µM.

“Enterococcus faecalis coenzyme A persulfide (CoASSH) reductase” came in with a stoichiometry N in series [3] of 2.

B1: Ef Pta / EfPta (phosphotransacetylase) (Enterococcus faecalis OG1RF) (protein)
chain: MYDGFCKYKTGGFIVELFDSLKFKVVRRNIKIVFPEATDPRILGAAARLKSDELVEPILIGDPTDIANAAMARGINTSNFIIINPNDYEKWDEMVEAFVERRNGKATKEDAEKILKDVNYFGTMLTYMGIADGMVSGAIHSTGDTVRPALQIIKTKPGVSRTSGAFLMIRGRDQERYLFSDCAINVNPTAQELAEIAVDSAKTAELFDIEPKVSLLSFSTKGSAKAPEVTKVAEATKIAQELAPEYAIDGELQFDASYVSSVAQLKAPNSKVAGEATVFVFPDLQSGNIGYKIAQRLGNFEAIGPILQGLNKPVSDLSRGANEEDVYKLSIITAAQTLMND
notes: Ni-NTA and Superdex G200; C182 in CoA pocket, R319, S318, D325 in active site
For B1, the Km in series [4] is 57 (±16) μM.
